The test system of one data set is Jurkat. Nature of the data set: Inhibition of IL2 production in Jurkat T cells. The class given is functional, cell-based. Particulars: Homo sapiens.
The species named for data set [1] is Mus musculus. Put plainly: Stability in mouse liver microsomes assessed as degradation rate per mg of protein. The class given is ADME.
Data set [2] deals with T1, Tyrosine-protein kinase ITK/TSK (Homo sapiens, UniProt Q08881).
T1 sequence (Q08881 whole entry): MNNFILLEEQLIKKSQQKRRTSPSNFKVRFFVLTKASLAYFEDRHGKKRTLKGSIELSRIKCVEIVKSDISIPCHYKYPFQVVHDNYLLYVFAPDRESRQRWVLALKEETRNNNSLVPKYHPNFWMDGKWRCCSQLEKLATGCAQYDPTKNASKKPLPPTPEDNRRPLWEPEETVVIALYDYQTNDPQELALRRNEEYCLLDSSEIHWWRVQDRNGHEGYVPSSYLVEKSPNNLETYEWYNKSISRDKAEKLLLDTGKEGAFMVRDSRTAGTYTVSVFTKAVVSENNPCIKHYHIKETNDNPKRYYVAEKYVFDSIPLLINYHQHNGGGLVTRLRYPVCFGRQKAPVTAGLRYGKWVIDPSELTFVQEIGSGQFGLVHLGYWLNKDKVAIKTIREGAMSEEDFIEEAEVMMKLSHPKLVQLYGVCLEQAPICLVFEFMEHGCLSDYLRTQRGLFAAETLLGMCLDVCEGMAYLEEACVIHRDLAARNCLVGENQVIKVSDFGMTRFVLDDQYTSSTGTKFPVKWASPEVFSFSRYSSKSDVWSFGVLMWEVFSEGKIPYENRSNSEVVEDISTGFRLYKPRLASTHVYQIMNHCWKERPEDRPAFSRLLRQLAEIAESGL
Nature of the data set: Inhibition of Itk.

For data set [3], the system named is Mus musculus. Put plainly: Inhibition of anti CD3-induced IL2 production in mice serum at 50 mg/kg, sc. The class given is functional. Particulars: route subcutaneous.
Data set [4] concerns Mus musculus. Nature of the data set: Inhibition of anti CD3-induced IL2 production in mice serum at 50 mg/kg, sc after 1.75 hrs. The class given is functional. The note with it: route subcutaneous.
For data set [5], the target named is Tyrosine-protein kinase SYK (Homo sapiens, UniProt P43405). Put plainly: Inhibition of Syk.
Data set [6] can be described thus: Tmax in mice at 20 mg/kg, po. The class given is ADME, organism-based. The arrangement: dose 20 mg/kg, route oral. Particulars: mouse, in vivo.
Data set [7] in a line: Oral bioavailability in mice at 20 mg/kg, po. Format: ADME, organism-based. The note with it: mouse, in vivo.
A short description of data set [8]: Half life in mice at 10 mg/kg, iv. The class given is ADME, organism-based. More on the design: dose 10 mg/kg, route intravenous. Particulars: mouse, in vivo.
Data set [9] is described as follows: Clearance in mice at 10 mg/kg, iv. Format: ADME, organism-based. The arrangement: dose 10 mg/kg, route intravenous. Particulars: mouse, in vivo.
A short description of data set [10]: Mean residence time in mice at 10 mg/kg, iv. The arrangement: dose 10 mg/kg, route intravenous. The class given is ADME, organism-based. The note with it: mouse, in vivo.
A short description of data set [11]: Tmax in mice at 10 mg/kg, iv. The class given is ADME, organism-based. The arrangement: dose 10 mg/kg, route intravenous. The note with it: mouse, in vivo.
Data set [12] can be described thus: Volume of distribution in mice at 10 mg/kg, iv. The note with it: mouse, in vivo, read-out: Vss. Format: ADME, organism-based. The arrangement: dose 10 mg/kg, route intravenous.
Data set [13] is described as follows: Half life in mice at 20 mg/kg, po. The class given is ADME, organism-based. More on the design: dose 20 mg/kg, route oral. The note with it: mouse, in vivo.
Data set [14] can be described thus: Cmax in mice at 20 mg/kg, po. Format: ADME, organism-based. More on the design: dose 20 mg/kg, route oral. Particulars: mouse, in vivo.
Data set [15] is described as follows: Mean residence time in mice at 20 mg/kg, po. Format: ADME, organism-based. The note with it: mouse, in vivo. More on the design: dose 20 mg/kg, route oral.
Another data set concerns EL4. Nature of the data set: cells. The note with it: Mus musculus.

Where only a bound is given, the exact number is not on record here.

This note sets out measurements from ChEMBL document CHEMBL1138957, “Discovery and SAR of 2-amino-5-(thioaryl)thiazoles as potent and selective Itk inhibitors” (Bioorg Med Chem Lett, 2006).

The compound `COc1cc(C)c(Sc2cnc(NC(=O)c3ccc[nH]3)s2)cc1C(=O)N1CCN(C(C)=O)CC1` returned an IC50 with Jurkat of 250 nM.
`O=C(O)C1CCN(C(=O)c2cc(Sc3cnc(Nc4cccc(Br)n4)s3)ccc2O)CC1`: the IC50 with Jurkat was over 50000 nM. Besides, the Stability in the data set listed under Mus musculus [1] (mouse) was under 0.1 nmol/min/mg.
Regarding `COc1cc(C)c(Sc2cnc(NC(=O)C3CC3C(=O)O)s2)cc1C(=O)N1CCN(C(C)=O)CC1` (stereo not drawn), the IC50 in the data set on Jurkat stood at 25300 nM. The Stability in the data set listed under Mus musculus [1] (mouse) was under 0.1 nmol/min/mg.
As to `CC(=O)N1CCN(C(=O)c2cccc(Sc3cnc(Nc4ccccn4)s3)c2)CC1`, in the data set with Jurkat, the IC50 stood at 24000 nM.
`COc1cc(C)c(Sc2cnc(NC(=O)C3CC3)s2)cc1C(=O)N1CCN(C(C)=O)CC1` came in with an IC50 with Jurkat of 690 nM. Besides, the Stability in the data set listed under Mus musculus [1] (mouse) was over 0.3 nmol/min/mg.
In the case of `COc1cc(C)c(Sc2cnc(Nc3cc(C)cc(C)n3)s2)cc1C(=O)N1CCN(C(C)=O)CC1`, in the data set on Jurkat, the IC50 amounted to 230 nM.
Still for that read-out and setting: as for `CC(=O)N1CCN(C(=O)c2cc(Sc3cnc(Nc4ccccn4)s3)ccc2O)CC1`, the figure is 2180 nM; as for `CC(=O)N1CCN(C(=O)c2cc(Sc3cnc(Nc4cc(C)cc(C)n4)s3)ccc2O)CC1`, 460 nM.
Consider `CCN1CCN(C(=O)c2cc(Sc3cnc(NC(=O)C4CC4)s3)c(C)cc2OC)CC1`, for which the IC50 in the data set with Jurkat came out at 1000 nM. For the same compound, the Stability in the data set filed under Mus musculus [1] (mouse) was over 0.3 nmol/min/mg.
As to `CS(=O)(=O)NC(=O)C1CCCN(C(=O)c2cc(Sc3cnc(Nc4cccc(Br)n4)s3)ccc2O)C1` (stereo not drawn), the IC50 with Jurkat is over 10000 nM. In addition, the Stability in the data set filed under Mus musculus [1] is under 0.1 nmol/min.
In the data set with Jurkat, `CN(CC(=O)O)C(=O)c1cc(Sc2cnc(Nc3cccc(Br)n3)s2)ccc1O` displayed an IC50 of over 10000 nM. Moreover, in the data set listed under Mus musculus [1] (mouse), the Stability was under 0.1 nmol/min/mg.
In turn, `O=C(O)C1CCCN(C(=O)c2cc(Sc3cnc(Nc4cccc(Br)n4)s3)ccc2O)C1` (stereo not drawn) gave an IC50 with Jurkat of over 50000 nM. For the same compound, the Stability in the data set listed under Mus musculus [1] (mouse) is under 0.1 nmol/min/mg.
For the compound `CC(=O)N1CCN(C(=O)c2cccc(Sc3cnc(NC(=O)c4ccc(N(C)C)cc4)s3)c2C)CC1`, in [2], the IC50 is over 25000 nM.
`CC(=O)N1CCN(C(=O)c2cc(Sc3cnc(Nc4cccc(Br)n4)s3)ccc2O)CC1` showed an IC50 in the data set on Jurkat of 370 nM. Further, in the data set listed under Mus musculus [1] (mouse), the Stability was over 0.3 nmol/min/mg.
`CC(=O)N1CCN(C(=O)c2cc(CSc3cnc(NC(=O)c4ccc(CNC(C)C(C)(C)C)cc4)s3)cc(C)c2C)CC1` (stereo not drawn): the IC50 in the data set with Jurkat amounted to 700 nM.
As to `COc1cc(C)c(Sc2cnc(NC(=O)c3ccc(N(C)C)cc3)s2)cc1C(=O)N1CCN(C(C)=O)CC1`, in the data set on Jurkat, the IC50 was found to be 280 nM.
In turn, `CC(=O)N1CCN(C(=O)c2cccc(CSc3cnc(NC(=O)c4ccc(N(C)C)cc4)s3)c2)CC1` displayed an IC50 with Jurkat of 22000 nM.
`CCNCc1ccc(C(=O)Nc2ncc(Sc3cc(C(=O)N4CCN(C(C)=O)CC4)c(OC)cc3C)s2)cc1` displayed an IC50 in the data set with Jurkat of 3400 nM.
In the data set with Jurkat, `COCc1ccc(C(=O)Nc2ncc(Sc3cc(C(=O)N4CCN(C(C)=O)CC4)c(OC)cc3C)s2)cc1` yielded an IC50 of 420 nM.
As for `COc1cc(C)c(Sc2cnc(NC(=O)C3CC3)s2)cc1C(=O)N1CCN(C(=O)CN(C)C)CC1`, inhibition with Jurkat was half-maximal at 210 nM (IC50). In addition, the Stability in the data set listed under Mus musculus [1] (mouse) is 0.1 nmol/min/mg.
On to `COc1cc(C)c(Sc2cnc(NC(=O)c3ccc(OC(C)C)cc3)s2)cc1C(=O)N1CCN(C(C)=O)CC1`, for which the IC50 with Jurkat was 360 nM.
Compound `CC(=O)N1CCN(C(=O)c2cccc(Sc3cnc(Nc4cccnc4)s3)c2)CC1` registered an IC50 in [2] of over 50000 nM.
`COc1cc(C)c(Sc2cnc(NC(=O)c3ccc(CNC(C)C(C)(C)C)cc3)s2)cc1C(=O)N1CCN(C(C)=O)CC1` (stereo not drawn) displayed an inhibition in vivo at 50 mg/kg in the data set with Mus musculus [3] of 50%. This compound yielded an Activity in the data set on Mus musculus [4] of 1.89 µM. Further, the IC50 in data set [5] is over 50000 nM; against Protein kinase C (PKC) it was 24000 nM; in the data set with EL4 it was 70 nM. The Tmax in data set [6] came to 1 h; in data set [11], 3 min. Also, the bioavailability in data set [7] stood at 6.4%. Besides, the half-life in data set [8] is 1.3 h; in data set [13], 1.4 h. The compound further had a clearance in [9] of 116 mL/min/kg. Also, the MRT in [10] was 1 h; in data set [15], 3.1 h. Further, the Vd in [12] was 7 L/kg. This compound had a Cmax in [14] of 69 nM.
In the data set on Jurkat, `CNCc1ccc(C(=O)Nc2ncc(Sc3cc(C(=O)N4CCOCC4)c(OC)cc3C)s2)[nH]1` yielded an IC50 of 260 nM. Also, the Stability in the data set listed under Mus musculus [1] (mouse) is 0.1 nmol/min/mg.
